# pIC50: −log10 of the molar value.
# Experiments:
# [1] = target: STIM1 and Orai1 in HEK293 cells (Homo sapiens, UniProt Q96D31); details: HEK293 cells coexpressing STIM1 and Orai1; cited from earlier work
# JR251 or RBL cells = assay: Fluorescence-based store-operated calcium entry assay, IC50 in JR251 or RBL cells; type: cell-based; details: in either JR251 or RBL cells, or both
# Description: The day prior to performing the assay, RBL-2H3 cells are plated in 50 μL of complete medium in a 384 well plate. Cells are grown at 37° C./6% CO2 overnight and grow to 50-60% confluence by the next day. On the assay day, 1.5 μM Fluo-4-AM dye (Invitrogen) in complete medium is added and incubated for 1 hour at RT. Cells are washed twice in Ca^2+-free HBSS buffer and 35 μL Ca^2+-free HBSS buffer is added to each well. 10 μL of a test compound prepared in a Ca^2+-free HBSS solution at 4.5× of the desired concentration is added to a well and incubated for 5 minutes at RT. 10 μL of thapsigargin prepared in a Ca^2+-free HBSS solution at 5.5× of the desired concentration (5.5 uM) is added to each well and incubated for an additional 25 minutes. The initial baseline fluorescence signal is measured with a FLIPR^384 (Molecular Devices) plate reader. 5 μL of 12× calcium in HBSS (12 mM) is added and changes in cellular fluorescence are measured with the FLIPR^384 plate reader. In each well, the change in the fluorescent signal as a function of time due to calcium entry into the cell is determined by calculating the difference between the fluorescent signal measured 7 seconds after calcium addition and the initial baseline fluorescence signal at time zero (t=0). This parameter is designated Upslope. The IC50 value is calculated as the concentration at which 50% of the Upslope is inhibited.
# The day prior to performing the assay, Jurkat E6-1 cells are seeded at a density of 2 million cells/mL in complete medium in a T-175 flask. Cells are grown at 37° C./6% CO2 overnight. On the following day, 1.5 μM Fluo-4-AM dye (Invitrogen) in complete medium is added and incubated for 1 hour at RT. Cells are harvested, washed twice in Ca^2+-free HBSS buffer and plated in 35 μL Ca^2+-free HBSS buffer in a 384 well plate. 10 μL of a test compound prepared in a Ca^2+-free HBSS solution at 4.5× of the desired concentration is added to a well and incubated for 5 minutes at RT. 10 μL of thapsigargin prepared in a Ca^2+-free HBSS solution at 5.5× of the desired concentration (5.5 uM) is added to each well and incubated for an additional 25 minutes. The initial baseline fluorescence signal is measured with a FLIPR^384 (Molecular Devices) plate reader. 5 μL of 12× calcium in HBSS (12 mM) is added and changes in cellular fluorescence are measured with the FLIPR^384 plate reader. In each well, the change in the fluorescent signal as a function of time due to calcium entry into the cell is determined by calculating the difference between the fluorescent signal measured 7 seconds after calcium addition and the initial baseline fluorescence signal at time zero (t=0). This parameter is designated Upslope. The IC50 value is calculated as the concentration at which 50% of the Upslope is inhibited.
# [2] = test system: Jurkat cells and colon cancer cells; details: cited from earlier work
# STIM1 and Orai1 in HEK293 cells, sequence (Q96D31 whole entry): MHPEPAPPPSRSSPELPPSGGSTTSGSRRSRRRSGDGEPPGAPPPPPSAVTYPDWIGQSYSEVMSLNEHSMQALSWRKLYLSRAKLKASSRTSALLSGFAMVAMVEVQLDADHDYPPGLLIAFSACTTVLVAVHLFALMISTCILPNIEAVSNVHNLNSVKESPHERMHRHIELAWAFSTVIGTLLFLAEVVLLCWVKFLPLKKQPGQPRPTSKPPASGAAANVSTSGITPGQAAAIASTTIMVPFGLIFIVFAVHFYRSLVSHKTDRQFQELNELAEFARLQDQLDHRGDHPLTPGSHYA
SMILES,pIC50 (JR251 or RBL cells),further results
NCCOB(c1ccccc1)c1ccccc1 [2-aminoethoxydiphenylborate],,block of store-operated Ca2+ entry [1]: completely blocked
"Clc1ccc(C2CC(c3ccco3)=Nc3ccccc3S2)c(Cl)c1 (centres unmarked) [(E)-2-(2,4-dichlorophenyl)-4-(furan-2-yl)-2,3-dihydrobenzo[b][1,4]thiazepine]",> 5.00,
"COc1ccc(C2CC(c3ccco3)=Nc3ccccc3S2)c(OC)c1 (centres unmarked) [(E)-2-(2,4-dimethoxyphenyl)-4-(furan-2-yl)-2,3-dihydrobenzo[b][1,4]thiazepine]",> 5.00,
"Fc1ccccc1C1CC(c2ccco2)=Nc2ccccc2S1 (centres unmarked) [(E)-2-(2-fluorophenyl)-4-(furan-2-yl)-2,3-dihydrobenzo[b][1,4]thiazepine]",> 5.00,
"COc1ccc(C2CC(c3cccs3)=Nc3ccccc3S2)cc1OC (centres unmarked) [(E)-2-(3,4-dimethoxyphenyl)-4-(thiophen-2-yl)-2,3-dihydrobenzo[b][1,4]thiazepine]",> 5.00,
"FC(F)Oc1ccc(C2CC(c3cccs3)=Nc3ccccc3S2)cc1 (centres unmarked) [(E)-2-(4-(difluoromethoxy)phenyl)-4-(thiophen-2-yl)-2,3-dihydrobenzo[b][1,4]thiazepine]",> 5.00,
"Fc1ccc(C2CC(c3cccs3)=Nc3ccccc3S2)cc1 (centres unmarked) [(E)-2-(4-fluorophenyl)-4-(thiophen-2-yl)-2,3-dihydrobenzo[b][1,4]thiazepine]",> 5.00,
"Cc1ccc(C2CC(c3cccs3)=Nc3ccccc3S2)cc1 (centres unmarked) [(E)-4-(thiophen-2-yl)-2-p-tolyl-2,3-dihydrobenzo[b][1,4]thiazepine]",> 5.00,
Cc1nnsc1C(=O)Nc1ccc(-n2nc(C(F)(F)F)cc2C(F)(F)F)cc1 [BTP-2],,inhibition of SOCE and proliferation [2]: inhibits SOCE and proliferation

# Further lines, with some results ahead:
pIC50 (JR251 or RBL cells),SMILES,further results
> 5.00,"FC(F)Oc1ccc(C2CC(c3ccco3)=Nc3ccccc3S2)cc1 (centres unmarked) [(E)-2-(4-(difluoromethoxy)phenyl)-4-(furan-2-yl)-2,3-dihydrobenzo[b][1,4]thiazepine]",
> 5.00,"Fc1ccc(C2CC(c3ccco3)=Nc3ccccc3S2)cc1 (centres unmarked) [(E)-2-(4-fluorophenyl)-4-(furan-2-yl)-2,3-dihydrobenzo[b][1,4]thiazepine]",
> 5.00,"FC(F)(F)c1ccc(C2CC(c3ccco3)=Nc3ccccc3S2)cc1 (centres unmarked) [(E)-4-(furan-2-yl)-2-(4-(trifluoromethyl)phenyl)-2,3-dihydrobenzo[b][1,4]thiazepine]",
> 5.00,"COc1ccc(C2CC(c3ccco3)=Nc3ccccc3S2)cc1 (centres unmarked) [(E)-4-(furan-2-yl)-2-(4-methoxyphenyl)-2,3-dihydrobenzo[b][1,4]thiazepine]",
> 5.00,"Cc1ccc(C2CC(c3ccco3)=Nc3ccccc3S2)cc1 (centres unmarked) [(E)-4-(furan-2-yl)-2-p-tolyl-2,3-dihydrobenzo[b][1,4]thiazepine]",
